In patent US7915291B2, “Hepatitis C virus inhibitors” (Bristol-Myers Squibb Company, priority 2002, dated 2011):

Tests used:
[1] = target: HCV NS3/4A protease complex, BMS strain (UniProt P27958, C1454S/C1711G, species not given/STRAIN_BMS); experiment: Recombinant HCV NS3/4A protease complex FRET peptide assay (BMS strain); format: biochemical, HCV genotype 1a; details: NS3/4A BMS strain; read-out: IC50 range
Description: Recombinant HCV NS3/4A Protease Complex FRET Peptide Assay
The purpose of this in vitro assay was to measure the inhibition of HCV NS3 protease complexes, derived from the BMS, H77C or J416S strains, as described below, by compounds of the present invention.
Serum from an HCV-infected patient was obtained from Dr. T. Wright, San Francisco Hospital. An engineered full-length cDNA (compliment deoxyribonucleic acid) template of the HCV genome (BMS strain) was constructed from DNA fragments obtained by reverse transcription-PCR(RT-PCR) of serum RNA (ribonucleic acid) and using primers selected on the basis of homology between other genotype 1a strains.
The BMS, H77C and J4L6S strains were used for production of recombinant NS3/4A protease complexes. […] Briefly, a three-lysine solubilizing tail was added at the 3′-end of the NS4A coding region. […] Briefly, NS3/4A expression was induced with 0.5 mM Isopropyl β-D-1-thiogalactopyranoside (IPTG) for 22 hr at 20° C. […] The crude protein extract was loaded on a Nickel—Nitrilotriacetic acid (Ni-NTA) column pre-equilibrated with buffer B (25 mM HEPES, pH8.0, 20% glycerol, 500 mM NaCl, 0.5% Triton-X100, 15 mM imidazole, 5 mM βME). The sample was loaded at a flow rate of 1 mL/min. The column was washed with 15 column volumes of buffer C (same as buffer B except with 0.2% Triton-X100). The protein was eluted with 5 column volumes of buffer D (same as buffer C except with 200 mM Imidazole).
NS3/4A protease complex-containing fractions were pooled and loaded on a desalting column Superdex-S200 pre-equilibrated with buffer D (25 mM HEPES, pH7.5, 20% glycerol, 300 mM NaCl, 0.2% Triton-X100, 10 mM βME). Sample was loaded at a flow rate of 1 mL/min. NS3/4A protease complex-containing fractions were pooled and concentrated to approximately 0.5 mg/ml.
The enzyme was stored at −80° C., thawed on ice and diluted prior to use in assay buffer. […] The sequence of this peptide is loosely based on the NS4A/NS4B natural cleavage site except there is an ester linkage rather than an amide bond at the cleavage site. The peptide substrate was incubated with one of the three recombinant NS3/4A complexes, in the absence or presence of a compound of the present invention, and the formation of fluorescent reaction product was followed in real time using a Cytofluor Series 4000.
The reagents were as follow: HEPES and Glycerol (Ultrapure) were obtained from GIBCO-BRL. Dimethyl Sulfoxide (DMSO) was obtained from Sigma. β-Mercaptoethanol was obtained from Bio Rad.
Substrate: 2 μM final concentration (from a 2 mM stock solution in DMSO stored at −20° C.). HCV NS3/4A type 1a (1b), 2-3 nM final concentration (from a 5 μM stock solution in 25 mM HEPES, pH7.5, 20% glycerol, 300 mM NaCl, 0.2% Triton-X100, 10 mM βME).
The assay was performed in a 96-well polystyrene black plate from Falcon. Each well contained 25 μl NS3/4A protease complex in assay buffer, 50 μof a compound of the present invention in 10% DMSO/assay buffer and 25 μl substrate in assay buffer. A control (no compound) was also prepared on the same assay plate. The enzyme complex was mixed with compound or control solution for 1 min before initiating the enzymatic reaction by the addition of substrate. The assay plate was read immediately using the Cytofluor Series 4000 (Perspective Biosystems). The instrument was set to read an […] at 25° C. Reactions were generally followed for approximately 15 minutes.
The percent inhibition was calculated with the following equation: 100−[(δFinh/δFcon)×100] where δF is the change in fluorescence over the linear range of the curve.

[2] = tested on: HCV replicon in Huh7 cells; experiment: HCV replicon cell-based assay; set-up: species or system HCV strain 1B; details: Hepatitis C virus, Huh-7; HCV replicon, Huh7 cells; read-out: EC50 range
Description: HCV Replicon Cell-based Assay
This system enabled us to evaluate the effects of our HCV Protease compounds on HCV RNA replication. Briefly, using the HCV strain 1B sequence described in the Lohmann paper (Assession number:AJ238799), an HCV cDNA was generated encoding the 5′ internal ribosome entry site (IRES), the neomycin resistance gene, the EMCV (encephalomyocarditis virus)-IRES and the HCV nonstructural proteins, NS3-NS5B, and 3′ non-translated region (NTR). In vitro transcripts of the cDNA were transfected into the human hepatoma cell line, Huh7. […] Resulting cell lines were characterized for positive and negative strand RNA production and protein production over time.
Huh7 cells, constitutively expressing the HCV replicon, were grown in Dulbecco's Modified Eagle Media (DMEM) containing 10% Fetal calf serum (FCS) and 1 mg/ml G418 (Gibco-BRL). Cells were seeded the night before (1.5×10^4 cells/well) in 96-well tissue-culture sterile plates. Compound and no compound controls were prepared in DMEM containing 4% FCS, 1:100 Penicillin/Streptomysin, 1:100 L-glutamine and 5% DMSO in the dilution plate (0.5% DMSO final concentration in the assay). Compound/DMSO mixes were added to the cells and incubated for 4 days at 37° C. After 4 days, plates were rinsed thoroughly with Phosphate-Buffered Saline (PBS) (3 times 150 μl). The cells were lysed with 25 μl of a lysis assay reagent containing the FRET peptide (RET S1, as described for the in vitro enzyme assay). The lysis assay reagent was made from 5× cell Luciferase cell culture lysis reagent(Promega #E153A) diluted to 1× with distilled water, NaCl added to 150 mM final, the FRET peptide diluted to 10 μM final from a 2 mM stock in 100% DMSO. The plate was then placed into the Cytofluor 4000 instrument which had been set to 340 nm excitation/490 emission, automatic mode for 21 cycles and the plate read in a kinetic mode. EC50 determinations were carried out as described for the IC50 determinations.
Cells were lyzed using the Rneasy kit (Qiagen). […] All primers were designed with ABI Prism 7700 software and obtained from Biosearch Technologies, Novato, Calif. Samples containing known concentrations of HCV RNA transcript were run as standards. Using the following cycling protocol (50° C., 30 min; 95° C., 5 min; 40 cycles of 95° C., 15 sec, 60° C., 1 min), HCV RNA expression was quantitated as described in the Perkin Elmer manual using the ABI Prism 7700 Sequence Detector.

| SMILES | IC50 [1] [nM] | EC50 [2] [nM] |
| --- | --- | --- |
| C=C[C@@H]1C[C@]1(NC(=O)[C@@H]1C[C@@H](Oc2nc(-c3ccoc3)cc3ccccc23)CN1C(=O)[C@@H](NC(=O)OC(C)(C)C)C(C)(C)C)C(=O)NS(=O)(=O)C1CC1 [Compound 30] | < 100 | < 100 |
| C=C[C@@H]1C[C@]1(NC(=O)[C@@H]1C[C@@H](Oc2nccc3c4c(ccc23)OC(F)(F)O4)CN1C(=O)[C@@H](NC(=O)OC(C)(C)C)C(C)(C)C)C(=O)NS(=O)(=O)C1CC1 [Compound 287] | < 100 | 100 to 1000 |
| C=C[C@@H]1C[C@]1(NC(=O)[C@@H]1C[C@@H](Oc2cc(-c3ccccc3)nc(-c3ccccc3)c2)CN1C(=O)[C@@H](NC(=O)OC(C)(C)C)C(C)(C)C)C(=O)NS(=O)(=O)C1CC1 [Compound 415] | < 100 | < 100 |
| C=C[C@@H]1C[C@]1(NC(=O)[C@@H]1C[C@@H](Oc2nccc3cc(OC)ccc23)CN1C(=O)[C@@H](NC(=O)OC(C)(C)C)[C@H](C)OC(C)(C)C)C(=O)NS(=O)(=O)C1CC1 [Compound 97] | < 100 | < 100 |
| C=C[C@@H]1C[C@]1(NC(=O)[C@@H]1C[C@@H](Oc2nccc3cc(OC)ccc23)CN1C(=O)[C@@H](NC(=O)N[C@H](C(=O)OC)[C@@H](C)CC)C(C)(C)C)C(=O)NS(=O)(=O)C1CC1 [Compound 151] | < 100 | < 100 |
| C=C[C@@H]1C[C@]1(NC(=O)[C@@H]1C[C@@H](Oc2nccc3cc(OC)ccc23)CN1C(=O)[C@@H](NC(=O)OC(C)C)C(C)(C)C)C(=O)NS(=O)(=O)C1CC1 [Compound 17] | < 100 | < 100 |
| CC[C@@H]1C[C@]1(NC(=O)[C@@H]1C[C@@H](Oc2nccc3cccc(C)c23)CN1C(=O)[C@@H](NC(=O)OC(C)(C)C)C(C)(C)C)C(=O)NS(=O)(=O)C1CC1 [Compound 297] | 100 to 1000 | 1000 to 10000 |
| C=C[C@@H]1C[C@]1(NC(=O)[C@@H]1C[C@@H](Oc2ncc(OC)c3ccccc23)CN1C(=O)[C@@H](NC(=O)OC(C)(C)C)C(C)(C)C)C(=O)NS(=O)(=O)C1CC1 [Compound 251] | < 100 | < 100 |
| C=CC1C[C@]1(NC(=O)[C@@H]1C[C@@H](Oc2nc3ccoc3c3ccccc23)CN1C(=O)[C@@H](NC(=O)OC(C)(C)C)C(C)(C)C)C(=O)NS(=O)(=O)C1CC1 (stereo partly drawn) [Compound 220, BOCNH-P3(L-t-BuGly)-P2[(4R)-(1-oxa-4-aza-cyclopenta[α]naphthalen-5-yloxy)-S-proline]-P1(1R,2S VinylAcca)-CONHSO2Cyclopropane] | < 100 | < 100 |
| C=CC1C[C@]1(NC(=O)[C@@H]1C[C@@H](Oc2nccc3cc(OC(C)C)ccc23)CN1C(=O)[C@@H](NC(=O)OC(C)(C)C)C(C)(C)C)C(=O)NS(=O)(=O)C1CC1 (stereo partly drawn) [Compound 192, BOCNH-P3(L-tert-BuGly)-P2[(4R)-(6-isopropoxy isoquinolin-1-oxo)-S-proline]-P1(1R,2S Vinyl Acca)-CONHSO2-Cyclopropane] | < 100 | < 100 |
| C=C[C@@H]1C[C@]1(NC(=O)[C@@H]1C[C@@H](Oc2nccc3cc(OC)ccc23)CN1C(=O)C(NC(=O)OC(C)(C)C)C(C)c1ccccc1)C(=O)NS(=O)(=O)C1CC1 (single isomer, unassigned) [Compound 135] | < 100 | 100 to 1000 |
| C=CC1C[C@]1(NC(=O)[C@@H]1C[C@@H](Oc2cc3c(Cl)nccc3c3c2OCO3)CN1C(=O)[C@@H](NC(=O)OC(C)(C)C)C(C)(C)C)C(=O)NS(=O)(=O)C1CC1 (stereo partly drawn) [Compound 212, BOCNH-P3(L-t-BuGly)-P2[(4R)-(6-Chloro-1,3-dioxa-7aza -cyclopenta[α]naphthalen-4-oxo)-S-proline]-P1(1R,2S VinylAcca)-CONHSO2Cyclopropane] | < 100 | < 100 |
| C=CC1C[C@]1(NC(=O)[C@@H]1C[C@@H](Oc2noc3cc(OC)ccc23)CN1C(=O)[C@@H](NC(=O)OC(C)(C)C)C(C)(C)C)C(=O)NS(=O)(=O)C1CC1 (some centres unmarked) [Compound 323] | < 100 | 100 to 1000 |
| C=C[C@@H]1C[C@]1(NC(=O)[C@@H]1C[C@@H](Oc2cc(-c3ccccc3)nc3c(C)noc23)CN1C(=O)[C@@H](NC(=O)OC(C)(C)C)C(C)(C)C)C(=O)NS(=O)(=O)C1CC1 [Compound 1] | < 100 | < 100 |
| C=C[C@@H]1C[C@]1(NC(=O)[C@@H]1C[C@@H](Oc2nccc3cc(OC)ccc23)CN1C(=O)[C@@H](NC(=O)OC(C)(C)C)C1CCCC1)C(=O)NS(=O)(=O)C1CC1 [Compound 149] | < 100 | < 100 |
| C=C[C@@H]1C[C@]1(NC(=O)[C@@H]1C[C@@H](Oc2ncc(Cl)c3cc(OC)ccc23)CN1C(=O)[C@@H](NC(=O)OC(C)(C)C)C(C)(C)C)C(=O)NS(=O)(=O)C1CC1 [Compound 278] | < 100 | < 100 |
| C=CC1C[C@]1(NC(=O)[C@@H]1C[C@@H](Oc2nc(-c3ccc(N(CC)CC)cc3)cc3cc(OC)ccc23)CN1C(=O)[C@@H](NC(=O)OC(C)(C)C)C(C)(C)C)C(=O)NS(=O)(=O)C1CC1 (some centres unmarked) [Compound 327] | < 100 | < 100 |
| C=CC1C[C@]1(NC(=O)[C@@H]1C[C@@H](Oc2ccc3c(Cl)nccc3c2)CN1C(=O)[C@@H](NC(=O)OC(C)(C)C)C(C)(C)C)C(=O)NS(=O)(=O)C1CC1 (stereo partly drawn) [Compound 188, BOCNH-P3(L-tert-BuGly)-P2[(4R)-(1-chloro isoquinolin-6-oxo)-S -proline]-P1(1R,2S Vinyl Acca)-CONHSO2-Cyclopropane] | < 100 | 100 to 1000 |
| C=CC1C[C@]1(NC(=O)[C@@H]1C[C@@H](Oc2cccc3c(Cl)ccnc23)CN1C(=O)[C@@H](NC(=O)OC(C)(C)C)C(C)(C)C)C(=O)NS(=O)(=O)C1CC1 (stereo partly drawn) [Compound 242, BOCNH-P3(L-t-BuGly)-P2[(4R)-(4-chloroquinoline-8-oxo)-S -proline]-P1(1R,2S VinylAcca)-CONHSO2Cyclopropane] | < 100 | 1000 to 10000 |
